Drawing on PubChem BioAssay (NCI), this text covers TGI and GI50 for seven compounds.

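A five-concentration, 48-hour dose response in 96-well plates underlies each endpoint, interpolated linearly between surrounding concentrations. GI50: concentration for 50% inhibition of growth. TGI: total growth inhibition.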

Some test systems named below: OVCAR-5 ovarian; OVCAR-3 ovarian; NCI-H460 lung; MOLT-4 leukemia; CCRF-CEM leukemia; SR leukemia; ACHN renal; A498 renal; SN12C renal; COLO 205 colon.
Common to all, as to assay: NCI-60 cell line screen, 48 h

As for `CC(=S)NC1C(Oc2ccc3c(C)cc(=O)oc3c2)OC(CO)C(O)C1O` (centres undefined), the TGI in the experiment on OVCAR-5 ovarian, in the experiment with OVCAR-3 ovarian, in the experiment on NCI-H460 lung, in the experiment with MOLT-4 leukemia, in the experiment with CCRF-CEM leukemia and with SR leukemia was above 100 µM in each case. In addition, the TGI in the experiment on ACHN renal, in the experiment on A498 renal and in the experiment on SN12C renal was above 100 µM throughout.

Regarding `C[Si](C)(C)C1=C2C(=O)c3ccccc3C(=O)C2=C([Si](C)(C)C)[C@@H]2CCCC[C@H]12`, the TGI in the experiment with OVCAR-5 ovarian, with OVCAR-3 ovarian, with NCI-H460 lung, in the experiment with MOLT-4 leukemia, in the experiment on CCRF-CEM leukemia and with SR leukemia was above 100 µM each time. For the same compound, the TGI in the experiment with ACHN renal, in the experiment on A498 renal, with SN12C renal and in the experiment with COLO 205 colon was above 100 µM each time.

Consider `CC(C)OP(=O)(OC(C)C)c1ncn(-c2ccc([N+](=O)[O-])cc2)n1`, for which the TGI in the experiment on OVCAR-5 ovarian, in the experiment with OVCAR-3 ovarian, in the experiment with NCI-H460 lung, in the experiment on MOLT-4 leukemia, in the experiment with CCRF-CEM leukemia and in the experiment on SR leukemia was above 100 µM throughout. The TGI in the experiment with ACHN renal, with A498 renal, with SN12C renal and in the experiment on COLO 205 colon was above 100 µM throughout.

Turning to `Cc1cccc2ns[s+]c12`, the TGI in the experiment on OVCAR-5 ovarian, in the experiment with OVCAR-3 ovarian, in the experiment with NCI-H460 lung, with MOLT-4 leukemia, with CCRF-CEM leukemia and in the experiment with ACHN renal was above 100 µM throughout. Further, the TGI in the experiment with A498 renal, in the experiment on SN12C renal and in the experiment on COLO 205 colon was above 100 µM each time.

For `COc1ccc2c(c1)CCC1C2CCC2(C)C1CC[C@@]2(O)CNC(=O)/C=C/c1ccc(O)c(O)c1` (some centres undefined), the GI50 in the experiment on OVCAR-5 ovarian was 16.5 µM; in the experiment with OVCAR-3 ovarian, 2.56 µM; with NCI-H460 lung it was 2.69 µM; in the experiment on MOLT-4 leukemia it was 0.382 µM; in the experiment with SR leukemia, 20.1 µM; with ACHN renal it was 2.19 µM. Moreover, the figures for the GI50 in the experiment on A498 renal, in the experiment with SN12C renal and in the experiment on COLO 205 colon were 18.8 µM, 2.57 µM and 1.81 µM, respectively. Also, the TGI in the experiment with OVCAR-5 ovarian is above 100 µM; in the experiment with OVCAR-3 ovarian it was 67.3 µM; in the experiment with NCI-H460 lung it was above 100 µM; in the experiment on MOLT-4 leukemia, 2.28 µM; in the experiment with SR leukemia, 59.7 µM; in the experiment on ACHN renal, 7.16 µM. For the same compound, the TGI with A498 renal is 39.8 µM; in the experiment on SN12C renal, 8.84 µM; in the experiment with COLO 205 colon, 5.75 µM.

`O=C(CCc1nnc2s/c(=C\c3ccc(Cl)cc3Cl)c(=O)n12)Nc1cc(Cl)c(Cl)cc1Cl`: the GI50 in the experiment with OVCAR-5 ovarian, in the experiment on OVCAR-3 ovarian, with MOLT-4 leukemia, in the experiment with CCRF-CEM leukemia, with SR leukemia and in the experiment with ACHN renal was above 100 µM throughout. The GI50 in the experiment on A498 renal, in the experiment with SN12C renal and in the experiment on COLO 205 colon was above 100 µM in each case. Besides, the TGI in the experiment with OVCAR-5 ovarian, in the experiment on OVCAR-3 ovarian, with MOLT-4 leukemia, with CCRF-CEM leukemia, with SR leukemia and in the experiment on ACHN renal was above 100 µM each time. In addition, the TGI in the experiment on A498 renal, with SN12C renal and with COLO 205 colon was above 100 µM throughout.

With `CN1C(=N\S(=O)(=O)c2ccc(Cl)cc2)/C(=N/N=P(c2ccccc2)(c2ccccc2)c2ccccc2)c2ccccc21`, the TGI in the experiment on OVCAR-5 ovarian, in the experiment with OVCAR-3 ovarian, in the experiment with NCI-H460 lung, in the experiment on MOLT-4 leukemia, with CCRF-CEM leukemia and with SR leukemia was above 100 µM throughout. Moreover, the TGI in the experiment on ACHN renal, with A498 renal, in the experiment with SN12C renal and in the experiment on COLO 205 colon was above 100 µM throughout.
